Experimental data published in paper PMC8809408 (Frontiers in Pharmacology, 2022).
Counter-ions that a name gives are not always drawn. Like-named read-outs stand apart in the source and are kept apart here.

Legend:
[1] = test system: pseudotyped lentiviruses harboring S-protein of SARS-CoV-2; assay: microbe, parasite or virus in culture; format: cell-based
[2] = test system: pseudotyped viruses, triple mutant (N501Y/K417N/E484K) S protein; format: cell-based, SARS-CoV-2
[3] = test system: pseudotyped viruses carrying E484K mutation in S protein; format: cell-based, SARS-CoV-2
[4] = test system: pseudotyped viruses carrying K417N mutation in S protein; format: cell-based, SARS-CoV-2
[5] = test system: pseudotyped viruses carrying N501Y mutation in S protein; format: cell-based, SARS-CoV-2
[6] = Severe acute respiratory syndrome coronavirus 2, 24 h

SMILES	luciferase reporter activity (viral infection) [1]	effectiveness against SARS-CoV-2 spike pseudotyped viruses compared with VSV-G pseudotyped viruses (luciferase activity) ([1]; 24 h)	IC50 [1, 6]	further results
CN(C)CCCN1c2ccccc2Sc2ccc(Cl)cc21 [Chlorpromazine]	Decline of luciferase reporter activity	more effective	0.973 µM	IC50 [1]: 0.972 µM
N[C@]1(c2ccccc2Cl)CCC[C@H](O)C1=O [2S,6S-HNK, 2S, 6S-Hydroxynorketamine]	neither ketamine nor the metabolites were effective	–	–	–
COc1ccc(C2CNC(=O)C2)cc1OC1CCCC1 (centres unmarked) [Rolipram]	failed to prevent the viral entry	–	–	–
CCOc1ccccc1OC(c1ccccc1)C1CNCCO1 (centres unmarked) [Reboxetine]	significantly reduced luciferase reporter activity	more effective	17.7 µM	–
CN(C)CCCC1(c2ccc(F)cc2)OCc2cc(C#N)ccc21 (centres unmarked) [Citalopram]	significantly reduced luciferase reporter activity	more effective	27.5 µM	selectivity index (SI) [1]: 9.97
CNCCCN1c2ccccc2CCc2ccccc21 [Desipramine]	significantly reduced luciferase reporter activity	more effective	8.1 µM	–
Fc1ccc([C@@H]2CCNC[C@H]2COc2ccc3c(c2)OCO3)cc1 [Paroxetine]	significantly reduced luciferase reporter activity	more effective	12.6 µM	selectivity index (SI) [1]: 1.76
CNC1(c2ccccc2Cl)CCCCC1=O (centres unmarked) [Ketamine]	neither ketamine nor the metabolites were effective	–	–	–
COc1ccc(C(CN(C)C)C2(O)CCCCC2)cc1 (centres unmarked) [Venlafaxine]	significantly reduced luciferase reporter activity	–	36.4 µM	–
O=c1[nH]c2ccccc2n1C1CCN(CCCC(c2ccc(F)cc2)c2ccc(F)cc2)CC1 [Pimozide]	Decline of luciferase reporter activity	more effective	4.54 µM	–
NC(=O)N1c2ccccc2C=Cc2ccccc21 [Carbamazepine]	failed to change the viral infection	–	–	–
N[C@@]1(c2ccccc2Cl)CCC[C@@H](O)C1=O [2R,6R-HNK, 2R, 6R-Hydroxynorketamine]	neither ketamine nor the metabolites were effective	–	–	–
CNCCC(Oc1ccc(C(F)(F)F)cc1)c1ccccc1 (centres unmarked) [Fluoxetine]	significantly reduced luciferase reporter activity	–	–	luciferase reporter activity, triple mutant (N501Y/K417N/E484K) pseudovirus [2]: significantly reduced the luciferase reporter activity; luciferase reporter activity, E484K pseudovirus [3]: significantly reduced the luciferase reporter activity; effectiveness against SARS-CoV-2 spike pseudotyped viruses compared with VSV-G pseudotyped viruses (luciferase activity) [1]: more effective; luciferase reporter activity, WT spike pseudovirus [1]: significantly reduced the luciferase reporter activity; luciferase reporter activity, K417N pseudovirus [4]: significantly reduced the luciferase reporter activity; luciferase reporter activity, N501Y pseudovirus [5]: significantly reduced the luciferase reporter activity
CN(C)CCCN1c2ccccc2CCc2ccc(Cl)cc21 [Clomipramine]	significantly reduced luciferase reporter activity	–	–	effectiveness against SARS-CoV-2 spike pseudotyped viruses compared with VSV-G pseudotyped viruses (luciferase activity) [1]: more effective
OCCN1CCN(CCC=C2c3ccccc3Sc3ccc(C(F)(F)F)cc32)CC1 [Flupenthixol]	Decline of luciferase reporter activity	more effective	1.07 µM	selectivity index (SI) [1]: 18.11
CN(C)CCCN1c2ccccc2CCc2ccccc21 [Imipramine]	significantly reduced luciferase reporter activity	–	3.01 µM	IC50 [1]: 3 µM; selectivity index (SI) [1]: 22.83
NNCCc1ccccc1 [Phenelzine]	failed to prevent the viral entry	–	–	–
CN(C)C(=O)COC(=O)Cc1ccc(OC(=O)c2ccc(NC(=N)N)cc2)cc1 [Camostat mesylate]	significantly reduced	–	–	–
